Measurements published in patent publication US8288385B2, “6-(3-aza-bicyclo[3.1.0]hex-3-yl)-2-phenyl-pyrimidines” (Actelion Pharmaceuticals Ltd., priority 2009, dated 2012).

Target: T1, human P2Y12 receptor (Homo sapiens, UniProt Q9H244)
T1 construct: expressed in transfected cells; host or cells: Chinese Hamster Ovary (CHO) cells
Experiment: P2Y12 receptor binding assay
Details: CHO cells with recombinant expression of the human P2Y12 receptor; tritium-labeled 2-methyl-S-ADP; RT, 2 hours
Protocol: P2Y12 Receptor Binding Assay
Chinese Hamster Ovary (CHO) cells with recombinant expression of the human P2Y12 receptor were cultured in 24 well cell-culture plates. Cells were washed three times with binding buffer (50 mM Tris pH 7.4, 100 mM NaCl, 1 mM EDTA, 0.5% BSA). The cells were then incubated with 0.5 ml per well binding buffer containing tritium-labeled 2-methyl-thio-adenosine 5′-diphosphate (2-methyl-S-ADP) (between 100,000 and 300,000 dpm per well) and various concentrations of test compounds. After incubation at RT for 2 hours, cells were washed three times with binding buffer. Then, cells were solubilized by addition of 0.5 ml solubilization buffer (SDS, NaOH, EDTA). The content of each well was then transferred into beta-counter vials and 2.0 ml of Ultima Gold Scintillation liquid was added.

T1 sequence (Q9H244 whole entry): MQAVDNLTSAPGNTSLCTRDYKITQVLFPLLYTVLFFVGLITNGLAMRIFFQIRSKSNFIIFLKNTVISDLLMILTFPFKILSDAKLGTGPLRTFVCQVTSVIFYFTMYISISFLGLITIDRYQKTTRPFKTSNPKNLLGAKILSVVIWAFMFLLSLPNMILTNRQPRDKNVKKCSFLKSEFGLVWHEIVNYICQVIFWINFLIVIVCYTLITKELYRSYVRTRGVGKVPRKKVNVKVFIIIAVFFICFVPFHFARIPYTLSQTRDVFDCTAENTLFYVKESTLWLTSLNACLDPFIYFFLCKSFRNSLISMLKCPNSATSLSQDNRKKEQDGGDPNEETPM

Structure (SMILES) | IC50
CCCCOC(=O)N1CCN(C(=O)[C@H](C)NC(=O)c2cc(N3C[C@@H]4[C@H](C3)[C@H]4C(=O)O)nc(-c3ccccc3)n2)CC1 [Example 34, (1α,5α,6α)-3-{6-[(S)-2-(4-Butoxycarbonyl-piperazin-1-yl)-1-methyl-2-oxo-ethylcarbamoyl]-2-phenyl-pyrimidin-4-yl}-3-aza-bicyclo[3.1.0]hexane-6-carboxylic acid] | 229 nM
CCCCOC(=O)N1CCN(C(=O)[C@@H](NC(=O)c2cc(N3C[C@@H]4[C@H](N)[C@@H]4C3)nc(-c3ccccc3)n2)C(C)C)CC1 [Example 23, 4-((S)-2-{[6-((1α,5α,6β)-6-Amino-3-aza-bicyclo[3.1.0]hex-3-yl)-2-phenyl-pyrimidine-4-carbonyl]-amino}-3-methyl-butyryl)-piperazine-1-carboxylic acid butyl ester] | 266 nM
CCCCOC(=O)N1CCN(C(=O)C(NC(=O)c2cc(N3CC4C(C3)C4C(=O)O)nc(-c3ccccc3)n2)C(C)C)CC1C [Example 31, (1α,5α,6β)-3-{6-[(S)-1-((R)-4-Butoxycarbonyl-3-methyl-piperazine-1-carbonyl)-2-methyl-propylcarbamoyl]-2-phenyl-pyrimidin-4-yl}-3-aza-bicyclo[3.1.0]hexane-6-carboxylic acid] | 53 nM
CCCCOC(=O)N1CCN(C(=O)[C@H](CP(=O)(OCOC(C)=O)OCOC(C)=O)NC(=O)c2cc(N3C[C@@H]4[C@H](C3)[C@H]4C(=O)OCC)nc(-c3ccccc3)n2)CC1 [Example 52, (1α,5α,6α)-3-{6-[(R)-1-(Bis-acetoxymethoxy-phosphorylmethyl)-2-(4-butoxycarbonyl-piperazin-1-yl)-2-oxo-ethylcarbamoyl]-2-phenyl-pyrimidin-4-yl}-3-aza-bicyclo[3.1.0]hexane-6-carboxylic acid ethyl ester] | 4 nM
CCCOC(=O)N1CCN(C(=O)[C@@H](NC(=O)c2cc(N3C[C@@H]4[C@H](C3)[C@@H]4C(=O)O)nc(-c3ccccc3)n2)C(C)C)CC1 [Example 14, (1α,5α,6β)-3-{6-[(S)-2-Methyl-1-(4-propoxycarbonyl-piperazine-1-carbonyl)-propylcarbamoyl]-2-phenyl-pyrimidin-4-yl}-3-aza-bicyclo[3.1.0]hexane-6-carboxylic acid] | 60 nM
CCCCOC(=O)N1CCN(C(=O)[C@H](Cc2ccccc2)NC(=O)c2cc(N3C[C@@H]4[C@H](C3)[C@@H]4C(=O)O)nc(-c3ccccc3)n2)CC1 [Example 45, (1α,5α,6β)-3-{6-[(S)-1-Benzyl-2-(4-butoxycarbonyl-piperazin-1-yl)-2-oxo-ethylcarbamoyl]-2-phenyl-pyrimidin-4-yl}-3-aza-bicyclo[3.1.0]hexane-6-carboxylic acid] | 255 nM
CCCCOC(=O)N1CCN(C(=O)[C@H](CCC(=O)O)NC(=O)c2cc(N3C[C@@H]4[C@@H](CO)[C@@H]4C3)nc(-c3ccccc3)n2)CC1 [Example 9, 4-((S)-4-Carboxy-2-{[6-((1α,5α,6α)-6-hydroxymethyl-3-aza-bicyclo[3.1.0]hex-3-yl)-2-phenyl-pyrimidine-4-carbonyl]-amino}-butyryl)-piperazine-1-carboxylic acid butyl ester] | 8 nM
CCOC(=O)N1CCN(C(=O)C(NC(=O)c2cc(N3CC4C(C3)C4C(=O)O)nc(-c3ccccc3)n2)C(C)C)CC1 [Example 13, (1α,5α,6β)-3-{6-[(S)-1-(4-Ethoxycarbonyl-piperazine-1-carbonyl)-2-methyl-propylcarbamoyl]-2-phenyl-pyrimidin-4-yl}-3-aza-bicyclo[3.1.0]hexane-6-carboxylic acid] | 96 nM
CCCCOC(=O)N1CCN(C(=O)[C@H](CP(=O)(OCC)OCC)NC(=O)c2cc(N3C[C@@H]4[C@H](C3)[C@H]4C(=O)OCC)nc(-c3ccccc3)n2)CC1 [Example 50, (1α,5α,6α)-3-{6-[(R)-2-(4-Butoxycarbonyl-piperazin-1-yl)-1-(diethoxy-phosphorylmethyl)-2-oxo-ethylcarbamoyl]-2-phenyl-pyrimidin-4-yl}-3-aza-bicyclo[3.1.0]hexane-6-carboxylic acid ethyl ester] | 383 nM
CCCCOC(=O)N1CCN(C(=O)[C@H](CCC(=O)O)NC(=O)c2cc(N3C[C@@H]4[C@H](C3)[C@@H]4NC(=O)OC(C)(C)C)nc(-c3ccccc3)n2)CC1 [Example 6, 4-((S)-2-{[6-((1α,5α,6β)-6-tert-Butoxycarbonylamino-3-aza-bicyclo[3.1.0]hex-3-yl)-2-phenyl-pyrimidine-4-carbonyl]-amino}-4-carboxy-butyryl)-piperazine-1-carboxylic acid butyl ester] | 7.3 nM
